In US20110086851A1, “SUBSTITUTED QUINAZOLINES AND THEIR USES FOR MYEOLOPROLIFIC AND THROMBOTIC DISEASES” (priority 2008, published 2011):
Structures can show the parent of a compound that is named as a salt.

What was measured:
[1] = test system: human megakaryocytopoiesis; details: cited from earlier work
[2] = test system: human phosphodiesterase III (PDE III); test: PDE III inhibition; assay type: biochemical
Description: In early volunteer trials, the most frequently reported adverse effects AEs other than headache were palpitations, postural dizziness and nausea. During patient studies, the most frequently reported drug-related AEs were headache, palpitations, oedema/fluid retention, nausea/vomiting, diarrhea, dizziness and abdominal pain. These effects are all likely to arise from the secondary, cardiovascular pharmacology associated with anagrelide resulting from its inhibitory effects on human phosphodiesterase III (PDE III). […] Inhibition of myocardial PDE III leads to positive inotropy (increasing of the force of contractions of the heart), increased chronotropy (increase in heart rate), and peripheral vasodilatation. Such cardiovascular manifestations of this inhibition are typically seen with the classical positive inotropes, milrinone and enoximone, and exploited in the short-term acute treatment of congestive heart failure. However, in the treatment of a so-called silent disease (i.e., asymptomatic) such as ET, the cardiovascular side-effects of palpitations and tachycardia associated with anagrelide limit its utility and a significant proportion of patients—reportedly between 25 and 50%—fail to tolerate the drug during long term treatment.

[3] = Pharmacokinetics in humans; assay type: in vivo, human; details: after anagrelide treatment
Description: The metabolism of anagrelide generally proceeds extremely rapidly, resulting in a less than ideal pharmacokinetic profile of the drug. […] This, combined with the side-effects profile, can lead to poor patient compliance. Furthermore, anagrelide undergoes a large first pass effect (>50%) leading to considerable intersubject variation in achieved exposures and, therefore, potentially variable drug response. Also, exposure to the pharmacologically active metabolite varies dramatically between patients since its formation is dependent on CYP1A, an enzyme whose expression is highly dependent on exposure to inducing agents such as cigarette smoke. Overall, this may result in the need for careful dose titration in patients being treated with anagrelide.

[4] = in vivo; cited from earlier work
[5] = target: human phosphodiesterase III (PDE III); details: cited from earlier work
[6] = test system: erythroid or myelomonocytic differentiation; details: stimulated by erythropoietin or granulocyte-macrophage colony-stimulating factor; cited from earlier work

| Structure (SMILES) | potency of inhibition of megakaryocytopoiesis relative to the parent drug [1] | potency as PDE III inhibitor relative to anagrelide [2] | exposure in vivo relative to the parent drug [3] | typical half-life [4] [h] | IC50 [5] [nM] | IC50 ([1]; in vitro, dose-dependent, read-out: estimated IC50, inhibition of TPO-induced megakaryocytopoiesis) [nM] | effect on erythroid or myelomonocytic differentiation [6] | first pass effect [4] [%] |
| --- | --- | --- | --- | --- | --- | --- | --- | --- |
| O=C1NC2=Nc3ccc(Cl)c(Cl)c3CN2C1O (stereo not drawn) [3-hydroxyanagrelide] | no more potent than the parent drug | over 40 fold | 2-3 fold | 2.5 | – | – | – | – |
| O=C1CN2Cc3c(ccc(Cl)c3Cl)N=C2N1 [Anagrelide, 6,7-dichloro-1,5-dihydroimidazo[2,1-b]-quinazolin-2(3H)-one hydrochloride monohydrate] | – | – | – | – | ~29 | ~26 | does not affect | > 50 |
| Cc1[nH]c(=O)c(C#N)cc1-c1ccncc1 [milrinone] | – | – | – | – | 170 to 350 | – | – | – |
